Measured values from US20050009748A1, “Compositions for delivering peptide YY and PYY agonists” (Emisphere Technologies, Inc., priority 2003, published 2005).
“And” between values parts separate entries of the source, which are not always exact repeats. Equal entries are not always repeated.

Legend:
[1] = Liquid oral delivery of PYY[3-36] in rats (oral gavage, serum PYY[3-36] radioimmunoassay); type: in vivo, Male Sprague-Dawley rats; settings: oral gavage solution, Delivery Agent 200 mg/kg, PYY[3-36] 0.3 mg/kg, 1 ml/kg
Description: SNAC monosodium salt, solid was dissolved in water. The pH of this solution was close to pH 7.5, so no pH adjustments were done. […] The final pH of these solutions was 7.5.
The pH was then lowered to 7.7 by adding HCl (5N). […] The final pH of these solutions varied between 7.5 and 7.6.
Each delivery agent compound (as the free acid or monosodium salts) was dissolved in water. The pH was adjusted to approximately 7.5 by adding HCl (5N) and NaOH (5N) as needed. […] The final pH of these solutions was approximately 7.5.
The typical dosing and sampling protocols were as follows. Male Sprague-Dawley rats weighing between 240-320 g were fasted up to a maximum 24 hours before the experiments and administered ketamine (44 mg/kg) and thorazine (1.5 mg/kg) by intramuscular injection before the test article administration. Afterwards, the anesthetized animals were administered the test article by oral gavage. A dosing group of five animals was administered one of the dosing solutions. For oral gavage (PO), an 11 cm Rusch 8 French catheter was adapted to a 1 ml syringe with a pipette tip. The syringe was filled with dosing solution by drawing the solution through the catheter, which was then wiped dry. The catheter was placed down the esophagus leaving 1 cm of tubing past the incisors. The dosing solution was administered by pressing the syringe plunger.
Blood samples were collected serially from the tail artery, or by cardiac puncture, typically at time=0, 15, 30, 45, 60 and 90 minutes. […] Results from the animals in each group were averaged for each time point.

[2] = Solid oral delivery of PYY[3-36] in feed restricted rats (serum PYY radioimmunoassay); type: in vivo, Male Sprague Dawley rats; settings: 1 tablet per animal
Description: An oral dosing tube was used.
Blood samples were collected serially from the tail artery, by cardiac puncture, or as in this case by retro-orbitally, typically at time=0, 15, 30, 60 and 90 minutes.

[3] = rats, end of 7-day study, food found in the stomachs
Description: Food was removed prior to dosing and returned 30 minutes after dosing.
An oral dosing tube was used. The dosing tube was inserted into the rat's mouth and carefully threaded down the rats pharynx and esophagus about 8 cm to about 15 cm depending on the weight of the rat (typically about 11 cm). The solid dosage form was delivered into the distal esophagus and/or stomach by pressing the plunger of the oral dosing tube.
Food consumption was determined every 24 hours from the weight difference between the food given to and food left over by each rat. The body weight of each rat was determined every 24 hours.

[4] = Delivery Agent 100 mg/kg, PYY[3-36] 0.3 mg/kg
[5] = Delivery Agent 50 mg/kg, PYY[3-36] 0.3 mg/kg

COc1ccc(C(=O)NCCCCCCCC(=O)O)c(O)c1 [Delivery Agent 4, 8-(2-hydroxy-4-methoxybenzoylamino)octanoic acid]
Mean Peak Serum [PYY(3-36)] (pg/ml) ± SD [1]: 830.246 ± 71.382 pg/mL | Mean serum peak of PYY (pg/ml) ± SD [2, 4]: 1821.82 ± 1513.84 pg/mL

O=C(O)CCCCCCCNC(=O)c1c(O)cccc1O [Delivery Agent 5, 8-(2,6-dihydroxybenzoylamino)octanoic acid]
Mean Peak Serum [PYY(3-36)] (pg/ml) ± SD [1]: 800.318 ± 40.61 pg/mL

O=C(O)CCCCCCCNC(=O)c1cc(Br)ccc1O [Delivery Agent 6, 8-(2-hydroxy-5-bromobenzoylamino)octanoic acid]
Mean Peak Serum [PYY(3-36)] (pg/ml) ± SD [1]: 812.946 ± 53.616 pg/mL

O=C(O)CCCCCCCNC(=O)c1cc(Cl)ccc1O [Delivery Agent 7, 8-(2-hydroxy-5-chlorobenzoylamino)octanoic acid]
Mean Peak Serum [PYY(3-36)] (pg/ml) ± SD [1]: 663.472 ± 135.394 pg/mL | Mean serum peak of PYY (pg/ml) ± SD [2, 5]: 725.96 ± 110.78 pg/mL | Mean serum peak of PYY (pg/ml) ± SD ([2]; Delivery Agent 100 mg/kg, PYY[3-36] 0 mg/kg (delivery agent alone)): 14.35 ± 19.71 pg/mL | Mean serum peak of PYY (pg/ml) ± SD [2, 4]: 1064.18 ± 363.8 pg/mL

O=C(O)CCCCCCCNC(=O)c1cc(I)ccc1O [Delivery Agent 8, 8-(2-hydroxy-5-iodobenzoylamino)octanoic acid]
Mean Peak Serum [PYY(3-36)] (pg/ml) ± SD [1]: 276.82 ± 425.45 pg/mL

Cc1ccc(O)c(C(=O)NCCCCCCCC(=O)O)c1 [Delivery Agent 9, 8-(2-hydroxy-5-methylbenzoylamino)octanoic acid]
Mean Peak Serum [PYY(3-36)] (pg/ml) ± SD [1]: 732.912 ± 266.578 pg/mL | Mean serum peak of PYY (pg/ml) ± SD [2, 4]: 1309.8 ± 836.33 pg/mL

O=C(O)CCCCCCCNC(=O)c1cc(F)ccc1O [Delivery Agent 10, 8-(2-hydroxy-5-fluorobenzoylamino)octanoic acid]
Mean Peak Serum [PYY(3-36)] (pg/ml) ± SD [1]: 846.416 ± 55.993 pg/mL | Mean serum peak of PYY (pg/ml) ± SD [2, 5]: 897.18 ± 549.5 pg/mL

O=C(O)CCCCCCCOc1cccc(O)c1 [Delivery Agent 12, 8-(3-hydroxyphenoxy)octanoic acid]
Mean Peak Serum [PYY(3-36)] (pg/ml) ± SD [1]: 845.682 ± 69.846 pg/mL and 1047.46 ± 36.93 pg/mL

O=C(O)CCCCCCCOc1ccc(O)cc1 [Delivery Agent 13, 8-(4-hydroxyphenoxy)octanoic acid]
Mean Peak Serum [PYY(3-36)] (pg/ml) ± SD [1]: 826.48 ± 379.12 pg/mL

N#Cc1ccccc1OCCCCCC(=O)O [Delivery Agent 14, 6-(2-cyanophenoxy)hexanoic acid]
Mean Peak Serum [PYY(3-36)] (pg/ml) ± SD [1]: 913.536 ± 33.688 pg/mL and 1083.38 ± 78.878 pg/mL

O=C(O)CCCCCCCOc1ccc(O)cc1 [Delivery Agent 17, 8-(4-hydroxyphenoxy)octanoate]
Mean serum peak of PYY (pg/ml) ± SD ([2]; Delivery Agent 100 mg/kg, PYY[3-36] 0.3 mg/kg, listed as 17): 897.18 ± 549.5 pg/mL

O=C(O)CCCCCCCOc1ccc(O)cc1 [Delivery Agent 18, 8-(4-hydroxyphenoxy)octanoate]
Mean serum peak of PYY (pg/ml) ± SD [2, 5]: 940.33 ± 1090.65 pg/mL | Mean serum peak of PYY (pg/ml) ± SD [2, 4]: 1216.13 ± 661.31 pg/mL

PYY[3-36]
effect on gastric emptying [3]: no effect on gastric emptying
